The source of these data is US8173813B2, “Quinolone and tetrahydroquinolone and related compounds having NOS inhibitory activity” (NeurAxon, Inc., priority 2007, dated 2012).

Structures are written as SMILES. Where two headings read alike, the source gives them in different places.

The subject of assay [1] is patients with persistent shock. To be noted: 11 patients with persistent shock; up to 30 days; cited from earlier work.
The subject of assay [2] is migraine patients. As to conditions: human migraine; single i.v. administration; cited from earlier work.
In assay [3] the test system is Male, Sprague Dawley rats. Description: Porreca model of allodynia (inflammatory soup onto the dura, hindpaw von Frey). The format is in vivo, rat.
The subject of assay [4] is sciatic nerve cuff-implanted rats. Briefly: Sciatic Nerve Cuff model, hind leg weight bearing. In kind it is in vivo, rat. The method, then: (§1) The method of inducing peripheral neuropathy is by implantation of a single cuff around the sciatic nerve, modified from the method described by Mosconi and Kruger (1996), where two to four cuffs were used. Rats are anaesthetized with a combination of ketamine (5 mg/100 g) and xylazine (0.5 mg/100 g), i.p. The left sciatic nerve is exposed after blunt dissection of overlying muscle and freed from surrounding tissue. A cuff made of a 2 mm segment of polyethylene (PE-90) tubing (Intramedic PE-90, Clay Adams, Division of Becton Dickinson, Parsippany, N.J.) slit longitudinally is fit around the nerve. Subsequently the muscle is sutured, and skin closed using suture clips. Antibiotic ointment (Nitrofurazone 0.2%) is applied over the wound, and 0.03 ml of the antibiotic Tribrissen 24% (trimethoprim-sulfadiazine) is injected subcutaneously. Animals are placed under a heating lamp until they recovered from the anaesthetic and then returned to their home cage.

The next assay concerns the target iNOS (Mouse) (Mus musculus, UniProt P29477). Briefly: iNOS (Mouse) enzyme assay. In kind it is biochemical. As to conditions: values in parentheses, read-out: iNOS IC50 (rodent data in parentheses). How it is done:
nNOS (Rat), eNOS (Rat) and iNOS (Mouse) Enzyme Assay Recombinant rat or mouse NO synthases (iNOS, eNOS, nNOS) were expressed in Sf9 cells (Sigma), 36 mg prot/ml (Bradford). […] Inhibition of NOS was determined by measuring the formation of L-[3H] citrulline from L-[3H] arginine. […] Stop buffer:100 mM Hepes, pH 5.5, 3 mM EDTA, 3 mM EGTA. Enzyme and inhibitor were pre-incubated for 35 min in the presence of NADPH before addition of arginine to initiate the reaction.

For assay [5], the system named is Rats with L5/L6 spinal nerve ligation. Briefly: Chung Spinal Nerve Ligation model, thermal hyperalgesia. To be noted: standard dosings 3, 10, and 30 mg/kg injected IP. The format is in vivo, rat.
The test system of assay [6] is sciatic nerve cuff-implanted rats. Description: Sciatic Nerve Cuff model, cold plate test (paw lifts). The format is in vivo, rat. To be noted: daily i.p. 30 mg/kg; cold plate 4±2° C.; 10-minute test period; average.
Source text: The animal will be placed into a box of approximately 12×12×12 inches. The bottom is filled with an ice-saline mixture and a metal plate is placed just on top of this mixture. […]
[…] Post-testing treatment—the feet will be wiped with a soft cloth or paper towel and the animal will be placed back in its home cage for five minutes. An allowance will be made for the time necessary to transfer to as well as adaptation to the next testing apparatus.
as §1, with “Animals are placed under a heating lamp until they recovered from the anaesthetic and then returned to their home cage.” left out

For the next assay, the target named is nNOS (Rat) (Rattus norvegicus, UniProt P29476). Briefly: nNOS (Rat) enzyme assay. The format is biochemical. To be noted: values in parentheses. How it is done: nNOS (Rat), eNOS (Rat) and iNOS (Mouse) Enzyme Assay Recombinant rat or mouse NO synthases (iNOS, eNOS, nNOS) were expressed in Sf9 cells (Sigma), 36 mg prot/ml (Bradford). […] Inhibition of NOS was determined by measuring the formation of L-[3H] citrulline from L-[3H] arginine. […] Stop buffer:100 mM Hepes, pH 5.5, 3 mM EDTA, 3 mM EGTA.

For assay [7], the system named is sciatic nerve cuff-implanted rats. Briefly: Sciatic Nerve Cuff model, mechanical allodynia (von Frey hair). In kind it is in vivo, rat. As to conditions: i.p 30 mg/kg. How it is done:
The Sciatic Nerve Cuff model in rats (Mosconi and Kruger, 1996, Pain 64, 37-57) involves implantation of a plastic cuff around the sciatic nerve that results in painful neuropathy several days after surgery and induction of nociceptive afterdischarge in spinal neurons after innocuous peripheral mechanical stimulation (G. M. Pitcher and J. L. Henry). Mechanical allodynia is measured in the ipsilateral paw using calibrated von Frey hair testing. A single acute application of the drug (i.p. dosing) reverses the post-cuff pain thresholds to mechanical stimulus towards normal threshold levels.
The study utilized a cuff model (Mosconi T, Kruger L. Fixed-diameter polyethylene cuffs applied to the rat sciatic nerve induce a painful neuropathy: ultrastructural morphometric analysis of axonal alterations. Pain 64: 37-57, 1996) to examine the therapeutic effectiveness of the test compound 11 on a battery of behavioural endpoints in rats.
The testing chamber consists of a 30×30×30 cm Plexiglas box with a clear Plexiglas floor. This floor contained 0.5 cm diameter holes that are spaced 1.5 cm apart, and is positioned over a mirror, which allows an unobstructed view of the rat paws. Animals are placed in the testing chamber and allowed to acclimatize for 30 min prior to testing. von Frey filaments (Stoelting Co., Illinois, USA) are applied to the soft tissue of the plantar surface of the hind paw to determine the withdrawal threshold. The first filament applied corresponds to a force of 4.31 grams. […] A 50% response threshold is calculated according to the response pattern observed (described by Chaplan et al. 1994). […]
A baseline reading with von Frey hairs is taken before model induction. Thus rats are acclimatized to the testing chamber and readings are taken for at least three days for the baseline before any surgery. After the surgery von Frey hair testing for any development of mechanical sensitivity is assessed. […]

The target of assay [8] is Nitric oxide synthase (endothelial, human recombinant) eNOS (Homo sapiens, UniProt P29474). Description: Human eNOS enzyme assay ([3H]L-arginine to [3H]L-citrulline). The format is biochemical. As to conditions: read-out: heNOS IC50.
The target in assay [9] is Nitric oxide synthase (neuronal, human recombinant) nNOS (Homo sapiens, UniProt P29475). Briefly: Human nNOS enzyme assay ([3H]L-arginine to [3H]L-citrulline). To be noted: for IC50: read-out: hnNOS IC50. In kind it is biochemical.
For a further assay, the target named is eNOS (Rat) (Rattus norvegicus, UniProt Q62600). Description: eNOS (Rat) enzyme assay. In kind it is biochemical. As to conditions: values in parentheses, read-out: eNOS IC50 (rodent data in parentheses).
The target of assay [10] is Recombinant human inducible NOS (iNOS) (Homo sapiens, UniProt P35228). Briefly: Human iNOS enzyme assay, radiometric. The format is biochemical. To be noted: read-out: hiNOS IC50.
Assay [11] deals with Rats with L5/L6 spinal nerve ligation. Briefly: Chung Spinal Nerve Ligation model, tactile allodynia. The format is in vivo, rat. To be noted: standard dosings 3, 10, and 30 mg/kg injected IP.
Assay [12] relates to patients with cardiogenic shock. As to conditions: randomized trial of 30 patients; reduced from 67%; cited from earlier work.
The subject of assay [13] is migraine patients. As to conditions: human migraine; open pilot study; cited from earlier work.
Setting [14] is: human recombinant eNOS, values without parentheses.
The mark [15] stands for this setting: human recombinant nNOS, values without parentheses.

Chain of Nitric oxide synthase (endothelial, human recombinant) eNOS (P29474 2-1203): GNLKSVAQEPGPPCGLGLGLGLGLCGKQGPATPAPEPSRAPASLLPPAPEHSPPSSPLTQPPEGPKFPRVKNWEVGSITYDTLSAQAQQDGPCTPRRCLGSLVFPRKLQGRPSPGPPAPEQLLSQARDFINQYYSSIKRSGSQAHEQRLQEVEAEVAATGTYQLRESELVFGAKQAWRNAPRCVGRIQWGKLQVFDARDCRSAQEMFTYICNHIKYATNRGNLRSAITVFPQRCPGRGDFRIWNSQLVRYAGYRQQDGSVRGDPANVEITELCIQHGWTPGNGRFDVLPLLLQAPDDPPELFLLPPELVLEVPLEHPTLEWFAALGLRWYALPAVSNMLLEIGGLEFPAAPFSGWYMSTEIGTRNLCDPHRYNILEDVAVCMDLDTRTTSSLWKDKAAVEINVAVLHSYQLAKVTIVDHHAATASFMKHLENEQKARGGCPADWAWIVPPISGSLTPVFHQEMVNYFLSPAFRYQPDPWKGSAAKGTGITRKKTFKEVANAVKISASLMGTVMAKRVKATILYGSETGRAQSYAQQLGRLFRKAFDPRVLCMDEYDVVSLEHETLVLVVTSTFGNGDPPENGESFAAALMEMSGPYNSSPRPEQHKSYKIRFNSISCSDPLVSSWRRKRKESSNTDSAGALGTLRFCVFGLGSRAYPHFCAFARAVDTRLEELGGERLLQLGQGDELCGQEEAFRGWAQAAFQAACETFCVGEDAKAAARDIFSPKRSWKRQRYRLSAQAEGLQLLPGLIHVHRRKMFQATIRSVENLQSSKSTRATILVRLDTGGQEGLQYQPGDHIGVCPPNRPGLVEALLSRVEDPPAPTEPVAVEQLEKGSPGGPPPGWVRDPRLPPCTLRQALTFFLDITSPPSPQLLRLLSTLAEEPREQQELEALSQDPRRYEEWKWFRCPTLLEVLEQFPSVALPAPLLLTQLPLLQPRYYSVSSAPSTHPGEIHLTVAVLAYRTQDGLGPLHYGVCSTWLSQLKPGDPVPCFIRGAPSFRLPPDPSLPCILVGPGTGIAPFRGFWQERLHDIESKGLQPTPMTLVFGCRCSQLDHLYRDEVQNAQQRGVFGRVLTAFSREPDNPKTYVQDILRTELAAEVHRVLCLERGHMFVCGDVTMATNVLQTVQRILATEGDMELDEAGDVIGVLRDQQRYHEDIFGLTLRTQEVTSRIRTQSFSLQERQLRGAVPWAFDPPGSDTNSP
Chain of Nitric oxide synthase (neuronal, human recombinant) nNOS (P29475 whole entry): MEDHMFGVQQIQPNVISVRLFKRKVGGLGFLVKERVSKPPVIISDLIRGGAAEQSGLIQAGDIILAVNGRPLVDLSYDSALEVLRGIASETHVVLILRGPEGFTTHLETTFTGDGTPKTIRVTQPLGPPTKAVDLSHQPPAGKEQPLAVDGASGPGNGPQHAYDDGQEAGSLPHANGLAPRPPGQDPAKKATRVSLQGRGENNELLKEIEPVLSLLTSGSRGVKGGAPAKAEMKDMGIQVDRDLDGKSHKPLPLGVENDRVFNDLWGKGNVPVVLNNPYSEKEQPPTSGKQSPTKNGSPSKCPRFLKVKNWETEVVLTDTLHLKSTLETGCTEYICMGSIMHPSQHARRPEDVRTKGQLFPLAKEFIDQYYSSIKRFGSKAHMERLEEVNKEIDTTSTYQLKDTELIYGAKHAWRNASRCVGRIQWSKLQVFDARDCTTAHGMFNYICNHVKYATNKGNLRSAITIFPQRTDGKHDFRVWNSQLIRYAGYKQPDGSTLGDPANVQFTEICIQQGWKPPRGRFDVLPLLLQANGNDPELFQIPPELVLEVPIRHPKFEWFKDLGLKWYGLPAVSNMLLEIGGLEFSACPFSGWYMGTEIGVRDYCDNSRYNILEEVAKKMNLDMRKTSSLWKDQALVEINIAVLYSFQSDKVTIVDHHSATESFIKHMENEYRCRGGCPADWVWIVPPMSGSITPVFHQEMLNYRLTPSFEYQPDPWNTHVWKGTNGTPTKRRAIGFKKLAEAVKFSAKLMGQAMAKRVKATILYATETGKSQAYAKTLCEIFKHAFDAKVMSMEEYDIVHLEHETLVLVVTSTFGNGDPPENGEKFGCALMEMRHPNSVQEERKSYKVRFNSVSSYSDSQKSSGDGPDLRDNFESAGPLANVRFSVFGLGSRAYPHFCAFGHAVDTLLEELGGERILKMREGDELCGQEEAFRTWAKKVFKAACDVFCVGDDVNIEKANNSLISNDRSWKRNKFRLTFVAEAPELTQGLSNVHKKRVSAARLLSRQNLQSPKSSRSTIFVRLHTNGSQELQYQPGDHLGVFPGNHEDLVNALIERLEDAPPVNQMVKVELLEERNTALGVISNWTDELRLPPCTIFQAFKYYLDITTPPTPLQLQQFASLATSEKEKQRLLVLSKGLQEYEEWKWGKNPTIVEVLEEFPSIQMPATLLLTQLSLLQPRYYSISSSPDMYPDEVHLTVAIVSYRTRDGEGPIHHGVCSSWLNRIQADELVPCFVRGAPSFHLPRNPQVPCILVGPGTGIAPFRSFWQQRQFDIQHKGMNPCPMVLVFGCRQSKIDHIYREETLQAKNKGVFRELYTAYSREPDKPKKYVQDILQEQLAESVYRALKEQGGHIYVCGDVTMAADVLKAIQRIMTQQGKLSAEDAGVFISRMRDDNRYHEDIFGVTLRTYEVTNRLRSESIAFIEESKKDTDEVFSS
Chain of eNOS (Rat) (Q62600 2-1202): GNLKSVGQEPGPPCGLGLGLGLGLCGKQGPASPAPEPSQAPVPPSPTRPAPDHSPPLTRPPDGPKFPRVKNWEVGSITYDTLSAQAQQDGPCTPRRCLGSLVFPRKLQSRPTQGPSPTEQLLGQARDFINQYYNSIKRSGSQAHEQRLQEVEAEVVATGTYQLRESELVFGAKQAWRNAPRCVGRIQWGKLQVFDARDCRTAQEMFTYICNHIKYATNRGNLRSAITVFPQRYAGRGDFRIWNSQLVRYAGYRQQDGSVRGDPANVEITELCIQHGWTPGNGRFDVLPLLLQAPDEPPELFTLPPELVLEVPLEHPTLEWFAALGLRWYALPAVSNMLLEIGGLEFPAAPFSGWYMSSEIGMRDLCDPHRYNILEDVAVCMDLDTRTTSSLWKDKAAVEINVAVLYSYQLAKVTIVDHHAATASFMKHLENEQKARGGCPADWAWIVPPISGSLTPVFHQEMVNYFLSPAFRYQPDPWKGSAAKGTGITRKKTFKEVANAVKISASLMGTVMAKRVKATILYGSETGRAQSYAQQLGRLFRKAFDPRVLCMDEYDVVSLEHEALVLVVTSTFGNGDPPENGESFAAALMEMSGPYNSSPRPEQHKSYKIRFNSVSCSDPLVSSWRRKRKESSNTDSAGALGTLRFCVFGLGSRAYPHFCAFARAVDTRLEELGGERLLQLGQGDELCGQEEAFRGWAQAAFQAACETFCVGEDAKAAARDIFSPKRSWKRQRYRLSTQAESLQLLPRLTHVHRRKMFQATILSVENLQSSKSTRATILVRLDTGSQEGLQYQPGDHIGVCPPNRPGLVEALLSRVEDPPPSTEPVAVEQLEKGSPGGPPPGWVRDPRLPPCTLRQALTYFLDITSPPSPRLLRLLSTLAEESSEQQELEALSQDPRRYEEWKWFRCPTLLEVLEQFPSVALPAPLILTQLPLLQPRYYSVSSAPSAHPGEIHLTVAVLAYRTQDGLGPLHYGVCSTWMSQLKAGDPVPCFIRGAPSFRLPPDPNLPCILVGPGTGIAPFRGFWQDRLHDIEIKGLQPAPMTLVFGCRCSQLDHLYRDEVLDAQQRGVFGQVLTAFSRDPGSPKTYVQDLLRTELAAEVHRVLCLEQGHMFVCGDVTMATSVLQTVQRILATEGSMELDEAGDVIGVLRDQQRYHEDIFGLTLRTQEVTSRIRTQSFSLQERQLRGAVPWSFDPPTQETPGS
Chain of Recombinant human inducible NOS (iNOS) (P35228 whole entry): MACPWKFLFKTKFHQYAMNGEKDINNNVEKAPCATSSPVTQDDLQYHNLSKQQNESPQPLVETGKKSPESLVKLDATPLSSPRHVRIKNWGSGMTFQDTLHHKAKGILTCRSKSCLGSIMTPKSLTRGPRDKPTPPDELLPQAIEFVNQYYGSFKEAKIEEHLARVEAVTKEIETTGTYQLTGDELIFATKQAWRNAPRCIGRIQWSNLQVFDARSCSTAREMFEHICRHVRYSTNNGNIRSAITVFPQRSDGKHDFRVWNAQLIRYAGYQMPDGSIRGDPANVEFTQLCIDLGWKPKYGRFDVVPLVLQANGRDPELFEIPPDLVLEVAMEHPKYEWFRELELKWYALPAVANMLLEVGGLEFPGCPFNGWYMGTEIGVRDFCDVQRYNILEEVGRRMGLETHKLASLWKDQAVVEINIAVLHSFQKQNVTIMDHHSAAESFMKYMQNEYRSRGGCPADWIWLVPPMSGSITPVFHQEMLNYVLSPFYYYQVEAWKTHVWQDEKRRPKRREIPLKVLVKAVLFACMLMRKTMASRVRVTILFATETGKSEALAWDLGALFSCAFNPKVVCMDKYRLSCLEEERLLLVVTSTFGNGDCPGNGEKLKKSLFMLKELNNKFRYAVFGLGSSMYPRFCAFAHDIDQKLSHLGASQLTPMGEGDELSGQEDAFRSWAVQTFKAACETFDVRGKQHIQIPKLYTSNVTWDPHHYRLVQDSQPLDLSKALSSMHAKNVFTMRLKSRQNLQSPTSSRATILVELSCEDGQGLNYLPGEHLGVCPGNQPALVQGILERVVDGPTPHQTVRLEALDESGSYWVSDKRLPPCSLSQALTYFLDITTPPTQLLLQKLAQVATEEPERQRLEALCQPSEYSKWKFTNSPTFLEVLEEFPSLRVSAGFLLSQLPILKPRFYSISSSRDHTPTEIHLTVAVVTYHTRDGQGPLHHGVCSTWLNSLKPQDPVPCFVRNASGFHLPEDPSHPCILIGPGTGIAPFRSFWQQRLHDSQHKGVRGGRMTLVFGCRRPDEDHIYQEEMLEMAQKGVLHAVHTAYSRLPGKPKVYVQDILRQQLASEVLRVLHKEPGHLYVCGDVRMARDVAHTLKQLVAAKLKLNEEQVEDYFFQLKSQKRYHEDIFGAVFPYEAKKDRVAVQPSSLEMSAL

As to `CNC(=N)NCCC[C@H](N)C(=O)O` [L-NMMA, N^G-monomethyl-L-arginine], in assay [1], the survival rate is recorded as 72%. For the same compound, the response rate in the assay with migraine patients [2] is listed as 67%. The “hindpaw allodynia after inflammatory soup (IS)” value in assay [3] (10 mg/kg i.v 15 minutes prior to IS) is “reverses the development of hindpaw allodynia”.
With `CN(C)CCN1CCCc2cc(NC(=N)c3cccs3)ccc21` [Example 11, N-(1-(2-(dimethylamino)ethyl)-1,2,3,4-tetrahydroquinolin-6-yl)thiophene-2-carboximidamide], the “hind paw weight placement 24 hours after the first dose” value in assay [4] (24 hours after the first dose) is recorded as “preferential placement on the contralateral hind paw”. Further, in [4] (drug administration on successive days), the “hind paw weight placement on successive days” value was “shift in hind paw weight placement toward even distribution on each day”. Also, in assay [4] (first day, two hours and four hours after drug administration), the “hind paw weight placement, first day” value is reported as “shift in weight placement toward even distribution between the two hind paws”. Further, the IC50 was > 100 µM at iNOS (Mouse); 0.46 µM on nNOS (Rat) (rat nNOS, read-out: nNOS IC50 (rodent data in parentheses)); 37.7 µM in [8] (setting [14]); 58.7 µM in assay [8]; 0.253 µM in [9] (setting [15]); 0.43 µM in assay [9]. Besides, the half-maximal inhibitory concentration (IC50) on eNOS (Rat) was > 100 µM; in assay [10] (human recombinant iNOS, values without parentheses), 0.85 µM. The “antihyperalgesic effect in the Chung model” value in [5] is given as “clear antihyperalgesic effect”. Further, the “paw lifts in the cold plate test” value in assay [6] is recorded as “approximately nine”. Further, the “tactile hypersensitivity, pre-injection reading on the second drug-administration day” value in assay [7] (latent effect of the first dose) is recorded as “sustained reversal of the tactile hypersensitivity”. Also, the “tactile sensitivity on successive days of administration” value in [7] (successive days) is recorded as “no further overt effect”. Also, in [7] (two and four hours after the first injection), the “tactile hypersensitivity (von Frey) after first injection” value is on record as “reversed the tactile hypersensitivity”.
On to `CN1CCCC1CCN1CCCc2cc(NC(=N)c3cccs3)ccc21` (single isomer, unassigned) [Example 23, N-(1-(2-(1-Methylpyrrolidin-2-yl)ethyl)-1,2,3,4-tetrahydroquinolin-6-yl)thiophene-2-carboximidamide], for which, in [11], the “antiallodynic effect in the Chung model” value was “antiallodynic effect”. Also, the “antihyperalgesic effect in the Chung model” value in [5] is reported as “clear antihyperalgesic effect”. For the same compound, on nNOS (Rat) (rodent enzymes), the “Selectivity eNOS/nNOS (rodent data in parentheses)” value is given as “(>434)”. Besides, the IC50 in assay [8] (setting [14]) is 41 µM; in [9] (setting [15]) it was 0.26 µM; on eNOS (Rat), > 100 µM; in assay [10], > 100 µM. In addition, the “Selectivity eNOS/nNOS” value in assay [9] (human enzymes, ratio of eNOS IC50 to nNOS IC50) amounted to 157. The “hindpaw allodynia after inflammatory soup (IS)” value in assay [3] (30 mg/kg p.o. 15 minutes prior to IS) is listed as “reverses the development of hindpaw allodynia”.
With `COC(=O)[C@@H](N)CCCNC(=N)N[N+](=O)[O-]` [L-NAME, N^G-Nitro-L-arginine methyl ester], the patient mortality in assay [12] is recorded as 27%.
`C/C1=C2/[N-][C@H]([C@H](CC(N)=O)[C@@]2(C)CCC(=O)NC[C@@H](C)OP(=O)([O-])O[C@H]2[C@@H](O)[C@@H](n3cnc4cc(C)c(C)cc43)O[C@@H]2CO)[C@]2(C)N=C(/C(C)=C3N=C(/C=C4N=C1[C@@H](CCC(N)=O)C\4(C)C)[C@@H](CCC(N)=O)[C@]\3(C)CC(N)=O)[C@@H](CCC(N)=O)[C@]2(C)CC(N)=O.[Co+3].[OH-]` [hydroxycobalamin]: the “patients with a reduction in the frequency of migraine attack of 50%” value with migraine patients [13] is recorded as 53%.
